This note sets out measurements from patent US7566808B2, “Management of ophthalmologic disorders, including macular degeneration” (President and Fellows of Harvard College, priority 2004, dated 2009).

Assay [1] has as its system A2E formation from all-trans-retinal and ethanolamine. Put plainly: In vitro A2E formation in the presence of aromatic amine. How it is done: 100 mg (355 μmoles) of all-trans-retinal was dissolved in 3 mL followed by the addition of 9.5 μL of glacial acetic acid 9.5 μL of ethanolamine (155 μmoles). This solution was aliquoted into 300 μL fractions. 3-aminoethylbenzoate (15.5 μmoles) was added to the samples at 0, 2, 3.75, 14, 16.25, 18.0833 19.917 23.75 and 48 hrs. […] The solutions were shaken at room temperature for 48 hrs. The solutions were then kept at −80° C. and 15 μL was diluted to 250 μL (methanol). The solutions (15 μL) were then analyzed on a reverse phase (C18-5 μm-4.6 mm×150 mm) column on a linear gradient 85%-96% methanol/water and UV detector at 430 nm to determine the amount of A2E formation. The percent A2E formation was compared to A2E formation at 48 h in the absence of aromatic amine.

The next assay deals with abcr knockout mice. The experiment in a line: In vivo A2E accumulation in abcr knockout mice. The following applies: versus no drug. Here is the method:
Effects on accumulation of A2E in abcr knockout mice by farnesyl decyl ketone and N-palmityl farnesimide were investigated. Mice were injected with 50 mg/kg drug in 25 microliters of DMSO or with only DMSO for the control group once or twice a week. After 2 to 2½ months, the mice were sacrificed, and A2E and iso-A2E were harvested and quantitated from 4 eyes for each drug or control.

For assay [2], the system named is bovine retinal pigment epithelial membrane system (11-cis-retinol formation). Put plainly: 11-cis-retinol formation in RPE membranes (IMH activity / RPE65 function). The format is biochemical. How it is done:
A control reaction mixture without any inhibitor was also incubated at room temperature for 15 min. At the end of the 15 min incubation, all-trans-retinol [11-12-^3H2] (0.2 μM) was added to the reaction mixtures (100 mM Tris pH 8.0, […] of RPE protein, 0.2% BSA 100 μM of DPPC, 1 mM of DTT and 0.2 μM all-trans-retinol [11-12-^3H2]) and incubated at room temperature for 30 min. At the end of this 30 minutes of incubation, an aliquot of the reactions were quenched to verify the equal addition of all-trans-retinol [11,12-^3H2] and the effect of these inhibitors on LRAT. After this the control reaction mixture was incubated with atRA (60 & 6 μM), 13cRA (60 & 6 μM) or 4-HPR (60 & 6 μM) for 15 min. Now all the reaction mixtures were incubated with 30 μM of apo-rCRALBP (100 mM Tris pH 8.0, 7.7 μg of RPE protein, 0.2% BSA 100 μm of DPPC, 1 mM of DTT 30 μM apo-rCRALBP and 0.2 μM all-trans-retinol [11-12-^3H2]) at 37° C. for 30 minutes. At the end of this incubation period the 200 μL reaction mixture was quenched by the addition of 750 μL ice cold methanol after which 100 μL of 1M sodium chloride solution was added, and 500 μl hexane (containing butylated hydroxy toluene at 1 mg/mL) was added to effect extraction of the retinoids. The retinoids were analyzed as previously described (27). The amount of 11-cis-retinol formed was used as a measurement of IMH activity. All experiments were performed in triplicate and the average values of these measurements were used for analysis.
A control reaction mixture without any inhibitor was also incubated at room temperature for 15 min. At the end of the 15 min incubation, all-trans-retinol [11-12-^3H2] (0.2 μM) was added to the reaction mixtures (100 mM Tris pH 8.0, 76.7 μg of RPE protein, 0.2% BSA 100 μM of DPPC, 1 mM of DTT and 0.2 μM all-trans-retinol [11-12-^3H2]) and incubated at room temperature for 30 min. […] The retinoids were analyzed as previously described (27). […]

The target of another assay is T1, tLRAT (Homo sapiens, UniProt O95237).
T1 construct: This form of LRAT has the two N and C-terminal transmembrane domains of LRAT truncated, and is His-tagged; made in house
T1 sequence (O95237 31-196 limits assumed): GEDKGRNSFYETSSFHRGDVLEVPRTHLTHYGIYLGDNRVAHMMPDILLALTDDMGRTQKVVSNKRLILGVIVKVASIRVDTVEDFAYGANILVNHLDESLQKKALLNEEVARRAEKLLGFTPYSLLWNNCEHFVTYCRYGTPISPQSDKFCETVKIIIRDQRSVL
Put plainly: mRPE65 concentration-dependent esterification of vitamin A by tLRAT. The format is biochemical. To be noted: FIG. 11C. How it is done: Effect of sRPE65 on tLRAT mediated esterification: The activity of LRAT was determined by monitoring the formation of tLRAT catalyzed retinyl esters from added all-trans-retinol [11,12-^3H2] sRPE65 and/or DPPC/dodecyl maltoside. In all of the studies reported here truncated LRAT (tLRAT) is used (Jahng et al., 2003b). This form of LRAT has the two N and C-terminal transmembrane domains of LRAT truncated, and is His-tagged which allows for the bacterial expression of LRAT and for its full purification (Bok et al., 2003). LRAT has never been purified and is not expressible in bacteria. Kinetic studies on LRAT and tLRAT show them to behave identically (Bok et al., 2003). […] The amount of all-trans-retinyl palmitate [11,12-^3H2] formed as determined by normal phase HPLC and was used as a measure of activity. […]
mRPE65 concentration-dependent esterification of vitamin A: The effect of mRPE65 concentration on the rates of all-trans-retinyl palmitate formation was determined by monitoring the tLRAT catalyzed formation of all-trans-retinyl palmitate from added [11,12-^3H2]-all-trans-retinol and mRPE65. […] The amount of all-trans-retinyl palmitate [11,12-^3H2] formed as determined by normal phase-HPLC and was used as a measure of activity. The kinetic paramaters KM (Kapp) and N were calculated as described before (Segal 1993). […]

In the case of `CCOC(=O)c1cccc(N)c1` [3-aminoethylbenzoate, ethyl 3-aminobenzoate], the “A2E % formation (48 Hrs = 100)” value amounted to 3.98% in assay [1] (amine added at 0 hrs); 8.67% in assay [1] (amine added at 2 hrs); 7.71% in assay [1] (amine added at 3.75 hrs); 19.73% in assay [1] (amine added at 14 hrs); 19.25% in assay [1] (amine added at 16.25 hrs); 23.70% in assay [1] (amine added at 18.0833 hrs). The “A2E % formation (48 Hrs = 100)” value is 27.65% in assay [1] (amine added at 19.91667 hrs), 22.44% in assay [1] (amine added at 23.75 hrs) and 100.00% in assay [1] (amine added at 48 hrs).
For `CCCCCCCCCCC(=O)CC=C(C)CCC=C(C)CCC=C(C)C` [Farnesyl decyl ketone, farnesyl decyl ketone], in the assay on abcr knockout mice, the “reduction of total accumulation” value is “about 80%”.
As for `CC1=C(/C=C/C(C)=C/C=C/C(C)=C/C(=O)Nc2ccc(O)cc2)C(C)(C)CCC1` [N-(4-hydroxyphenyl)retinamide], in assay [2] (60 μM or 6 μM, pre-incubation before vitamin A, FIG. 8), the “inhibition of 11-cis-retinol formation, pre-incubation with inhibitor” value is recorded as “substantially weaker”.
Turning to `CCCCCCCCCCCCCCCCNC(=O)C/C=C(\C)CC/C=C(\C)CCC=C(C)C` [N-Palmityl farnesimide, palmityl farnesimide], the “reduction of total accumulation” value in the assay with abcr knockout mice is listed as “about 47%”.
Turning to `CC1=C(/C=C/C(C)=C/C=C/C(C)=C/C(=O)O)C(C)(C)CCC1` [all-trans-retinoic acid], the “inhibition of 11-cis-retinol formation, membranes pre-incubated with vitamin A before inhibitor” value in assay [2] (60 μM, data not shown) is “not susceptible to inhibition”.

B1: mRPE65: membrane-associated, palmitoylated form of RPE65; acts as palmitoyl donor for LRAT (protein, UniProt Q16518 2-533, looked up)
Retinoid isomerohydrolase: SIQVEHPAGGYKKLFETVEELSSPLTAHVTGRIPLWLTGSLLRCGPGLFEVGSEPFYHLFDGQALLHKFDFKEGHVTYHRRFIRTDAYVRAMTEKRIVITEFGTCAFPDPCKNIFSRFFSYFRGVEVTDNALVNVYPVGEDYYACTETNFITKINPETLETIKQVDLCNYVSVNGATAHPHIENDGTVYNIGNCFGKNFSIAYNIVKIPPLQADKEDPISKSEIVVQFPCSDRFKPSYVHSFGLTPNYIVFVETPVKINLFKFLSSWSLWGANYMDCFESNETMGVWLHIADKKRKKYLNNKYRTSPFNLFHHINTYEDNGFLIVDLCCWKGFEFVYNYLYLANLRENWEEVKKNARKAPQPEVRRYVLPLNIDKADTGKNLVTLPNTTATAILCSDETIWLEPEVLFSGPRQAFEFPQINYQKYCGKPYTYAYGLGLNHFVPDRLCKLNVKTKETWVWQEPDSYPSEPIFVSHPDALEEDDGVVLSVVVSPGAGQKPAYLLILNAKDLSEVARAEVEINIPVTFHGLFKKS
modifications: palmitoylated membrane-associated form
notes: membrane-associated, palmitoylated form of RPE65; acts as palmitoyl donor for LRAT
Regarding B1, the “Hill plot N” value in the assay with tLRAT worked out at 2.54.
